Data taken from paper PMC6321145 (Molecules, 2018).

Columns and labels:
Aβ1–42 [1] = target: T1, Aβ1–42 (Homo sapiens, UniProt P05067); test: Inhibition of self-induced Aβ1–42 aggregation (ThT fluorescence assay); assay type: biochemical; conditions: for inhibition at 20 µM: inhibitor 20 μM, Aβ1–42 50 μM, ThT, 37 °C, 72 h, mean ± SD
T1 construct: Aβ1–42 (Sigma, St. Louis, MO, USA; counterion, NaOH) stock solution was prepared by dissolving Aβ1–42 peptide in ammonium hydroxide; purchased Sigma
Description: The formation and aggregation of Aβ1–42 in the brain leads to neurotoxicity in AD. In order to evaluate the activity of our new synthetic compounds to inhibit Aβ1–42 self-induced aggregation, the thioflavin (ThT) fluorescence assay was performed.
All ThT experiments were performed according to our previously published methods. Aβ1–42 (Sigma, St. Louis, MO, USA; counterion, NaOH) stock solution was prepared by dissolving Aβ1–42 peptide in ammonium hydroxide (1% v/v), and diluting with 20 mM phosphate buffer (pH 7.4) to 100 μM. The tested compounds were firstly dissolved in DMSO at a concentration of 10 mM, and then diluted with 20 mM phosphate buffer (pH 7.4) to 40 μM.
For the inhibition of self-induced Aβ1–42 aggregation. Aβ1–42 peptide (2 μL, 50 μM, final concentration) with the tested compound (2 μL, 20 μM, final concentration) or 20 mM phosphate buffer (2 μL) was incubated in 20 mM phosphate buffer (pH 7.4) at 37 °C for 72 h. After incubation, the samples were diluted to a final volume of 36 μL with 50 mM glycine-NaOH buffer (pH 8.5) containing 5 μM Thioflavin T. Fluorescence signal was measured (excitation wavelength 450 nm, emission wavelength 485 nm, and slit widths set to 5 nm) on a monochromator-based multimode microplate reader ([…] M1000, TECAN, Hombrechtikon, Switzerland), adapted for 384-well microtiter plates. […] Each compound was examined in triplicate.

Aβ1–42 fibrils = target: T2, Aβ1–42 fibrils (Homo sapiens, UniProt P05067); test: TEM assay of Aβ1–42 fibrils; assay type: biochemical; conditions: compound 20 μM; 37 °C, 24 h
T2 construct: Aβ1–42 (Sigma, St. Louis, MO, USA; counterion, NaOH) stock solution was prepared by dissolving Aβ1–42 peptide in ammonium hydroxide; purchased Sigma
T2 sequence (P05067 672-713): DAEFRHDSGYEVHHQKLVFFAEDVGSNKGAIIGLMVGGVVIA
Description: To further complement the ThT binding assay, A transmission electron microscopy (TEM) assay was employed to monitor and clarify the effect of compound 6b1 on Aβ1−42 aggregation.
The ability of compound 6b1 to disaggregate self-induced Aβ1–42 aggregation fibrils was also investigated. Aβ1–42 fibrils were prepared by incubating fresh Aβ1–42 for 24 h at 37 °C, and the test compound was added to the sample and incubated for another 24 h at 37 °C. Then the sample was analyzed by ThT binding assay and TEM assay.
Aβ1–42 peptide (Sigma) was dissolved in 20 mM phosphate buffer (pH 7.4) at 4 °C to 100 μM before use.
Aβ1–42 was incubated at 37 °C for 24 h. Then, 40 μM tested compound was added and incubated at 37 °C for another 24 h. The final concentrations of Aβ1–42 and the compounds were 50 μM and 20 μM, respectively. After incubation, aliquots (5 μL) of the samples were placed on a carbon-coated copper/rhodium grid for 2 min at room temperature. Each grid was stained with uranyl acetate (1%, 5 μL) for 2 min. Excess staining solution was removed and the specimen was transferred for imaging with transmission electron microscopy (JEOL JEM-1400, Tokyo, Japan).

Aβ1–42 [2] = target: T1, Aβ1–42; test: Inhibition of Cu^2+-induced Aβ1–42 aggregation (ThT-binding assay); assay type: biochemical; conditions: [Aβ] = 20 μM, [Cu^2+] = 20 μM, [compound] = 40 μM; 37 °C, 24 h
Description: To investigate the ability of compound 6b1 to inhibit Cu^2+-induced Aβ1–42 aggregation, the ThT-binding assay was performed.
Aβ was diluted in […] (pH 6.6) with […]. The mixture of the peptide (10 μL, 20 μM, final concentration) with or without copper (10 μL, 20 μM, final concentration) and the test compound (10 μL, 40 μM, final concentration) was incubated at 37 °C for 24 h. The 30 μL of the sample was diluted to a final volume of 200 μL with 50 mM glycine-NaOH buffer (pH 8.0) containing thioflavin T (5 μM). The detection method was the same as that of self-induced Aβ aggregation experiment.

SH-SY5Y cells = test: Cellular ROS detection (DCFH-DA) in SH-SY5Y cells treated with t-BuOOH; assay type: cell-based, human; conditions: compound 2.5 μM; 0.1 mM t-BuOOH; compared with Trolox
Description: To further investigate their antioxidant activity in SH-SY5Y cells, cellular ROS detection assay based on dichlorofluorescein diacetate (DCFH-DA) was performed. with Trolox and N-acetyl-L-cysteine (NAC) as reference compounds.
SH-SY5Y cells were maintained in Dulbecco’s modified Eagle’s medium (DEME) and supplemented with 1 mM glutamine, 10% fetal calf serum, 100 U/mL penicillin, and 100 μg/mL streptomycin. The cultures were maintained at 37 °C in a humidified incubator containing 5% CO2 and were passaged twice weekly.
The antioxidant activity of the compounds in SH-SY5Y cells were tested with the fluorescent probe (2′,7′-dichlorofluorescein diacetate, DCFH-DA) as reported with some variation. SH-SY5Y cells were sub-cultured in 96-well plates at a seeding density of 1 × 10^4 cells per well for 24 h, then the medium was removed, the tested compounds (2.5 μM) was added and incubated for another 24 h at 37 °C. After that, the cells were washed with PBS and incubated with 5 μM DCFH-DA in PBS at 37 °C in 5% CO2 for 30 min. Then DCFH-DA was removed, the cells were washed three times and incubated with 0.1 mM t-BuOOH in PBS for 30 min. After the incubation, the cell fluorescence from each well was measured at 485 nm excitation and 535 nm emission with a monochromator based multimode microplate reader ([…] M1000).

[3] = Oxygen radical absorbance capacity with fluorescein (ORAC-FL) assay
Description: Oxidative stress is another crucial event in AD pathogenesis. In order to determine antioxidant activities of our synthetic compounds, the oxygen radical absorbance capacity method with fluorescein (ORAC-FL) assay was performed. with Trolox (6-hydroxy-2,5,7,8-tetramethylchroman-2-carboxylic acid) as the standard, and their antioxidant activity was expressed as Trolox equivalents.
The antioxidant activities of the compounds in vitro were determined by the oxygen radical absorbance capacity fluorescein (ORAC-FL) assay. The tested compounds and (±)-6-hydroxy-2,5,7,8-tetramethylchroman-2-carboxylic acid (Trolox) were dissolved in DMSO at a concentration of 10 mM, and then diluted with 75 mM potassium phosphate buffer (pH 7.4) to 50 μM and 10 μM for use. The fluorescein (FL) stock solution (3.4 mM) was diluted with the same buffer to 136 nM. All the assays were conducted with 75 mM potassium phosphate bufffer (pH 7.4), and the final reaction mixture was 200 μL.
The mixture of compounds (or buffer) (20 μL) and fluorescein (FL, 120 μL) were incubated for 15 min at 37 °C in a black 96-well plate. Then 2,2′-azobis-(amidino-propane)-dihydrochloride (AAPH) solution (60 μL, 40 mM) was rapidly added to the reaction mixture. The fluorescence was recorded every 5 min for 240 min at 485 nm (excitation wavelength) and 535 nm (emission wavelength) (Varioskan Flash Multimode Reader, Thermo Scientific, Waltham, MA, USA), and each sample was prepared and measured for three times independently. […] The net AUC for a sample was calculated using the expression net AUC = AUCsample − AUCblank, The ORAC-FL value of each sample was calculated using the equation of net AUCsample/(AUCTrolox – AUCblank), which was expressed as Trolox equivalents.

[4] = Cytotoxicity on SH-SY5Y cells (MTT); assay type: cell-based, human; conditions: human, SH-SY5Y neuroblastoma cells; MTT, 24 h; mean ± SEM of three measurements
Description: The cytotoxicity of our synthesized compounds was examined in human neuroblastoma SH-SY5Y cells. The cell viability was determined by using methyl thiazolyl tetrazolium (MTT) colorimetry, the cells were treated with different concentrations of compounds (0–100 μM). The result is shown in the Supplementary Materials (Table S1).
The cytotoxicities of the compounds were evaluated using the MTT assay. SH-SY5Y cells were subcultured in 96-well plates at a seeding density of 1 × 10^4 cells per well. After 24 h, the medium was removed and treated with different concentrations of tested compounds for 24 h at 37 °C. The survival of cells was determined with MTT assay. Then 80 μL of medium and 20 μL of MTT (0.5 mg/mL, final concentration) were added to each well and incubated for another 4 h. After the removal of MTT, the formazan crystals were dissolved in DMSO. The amount of formazan was measured using a microculture plate reader at the wavelength of 570 nm. Each concentration was performed in triplicate.

T1 sequence (P05067 672-713): as above

| Compound | inhibition at 20 µM (Aβ1–42 [1]) [%] | TEM: Aβ1–42 fibril formation in presence of compound (Aβ1–42 fibrils) | Inhibition of Cu^2+-induced Aβ aggregation (Aβ1–42 [2]) [%] | IC50 (Aβ1–42 [1]; ThT fluorescence method, mean ± SD of three experiments, read-out: IC50 against self-induced Aβ1–42 aggregation) [µM] | melting point [°C] | Antioxidant activity in SH-SY5Y cells (ROS generation, DCFH-DA fluorescence) (SH-SY5Y cells) | ORAC ([3]; compound 1 μM) | IC50 at 24 h [4] [µM] | ORAC ([3]; compound 5 μM) |
| --- | --- | --- | --- | --- | --- | --- | --- | --- | --- |
| Oc1ccc(/C=C/c2cc(O)cc(O)c2)cc1 [Res, resveratrol, reference compound] | 77.2 ± 1.1 | a few thick fibrils | 71.2 | – | – | – | – | – | – |
| Oc1c(I)cc(Cl)c2cccnc12 [CQ, clioquinol] | – | – | 83.6 | – | – | – | – | – | – |
| CCN(CC)CCCNc1cc(/C=C/c2ccc(N(CC)CC)cc2)nc2ccccc12 [Compound 6a1, (E)-N^1-(2-(4-(Diethylamino)styryl)quinolin-4-yl)-N^3,N^3-diethylpropane-1,3-diamine] | 90.2 ± 1.3 | – | – | 7.8 ± 0.4 | 182.3 to 184 | more antioxidant activity than Trolox | 5.92 ± 0.03 μmol of Trolox equivalents/μmol of tested compounds | 189 | – |
| CN(C)CCCNc1cc(/C=C/c2c[nH]c3ccccc23)nc2ccccc12 [Compound 6b3, (E)-N^1-(2-(2-(1H-Indol-3-yl)vinyl)quinolin-4-yl)-N^3,N^3-dimethylpropane-1,3-diamine] | 87.2 ± 2.1 | – | – | – | 168.2 to 169.5 | a little weaker antioxidant activity than Trolox | 3.96 ± 0.08 μmol of Trolox equivalents/μmol of tested compounds | 168.1 ± 0.2 | 4.21 ± 0.08 μmol of Trolox equivalents/μmol of tested compounds |
